Legend:
[1] = target: T1, Sodium-dependent serotonin transporter (Homo sapiens, UniProt P31645)
Description: Inhibitory concentration against serotonin transporter

[2] = target: T1, Sodium-dependent serotonin transporter; remark: listed apart in the source
Description: Inhibition constant against serotonin transporter

[3] = target: T2, 5-hydroxytryptamine receptor 1A (Homo sapiens, UniProt P08908)
T2 sequence (P08908 whole entry): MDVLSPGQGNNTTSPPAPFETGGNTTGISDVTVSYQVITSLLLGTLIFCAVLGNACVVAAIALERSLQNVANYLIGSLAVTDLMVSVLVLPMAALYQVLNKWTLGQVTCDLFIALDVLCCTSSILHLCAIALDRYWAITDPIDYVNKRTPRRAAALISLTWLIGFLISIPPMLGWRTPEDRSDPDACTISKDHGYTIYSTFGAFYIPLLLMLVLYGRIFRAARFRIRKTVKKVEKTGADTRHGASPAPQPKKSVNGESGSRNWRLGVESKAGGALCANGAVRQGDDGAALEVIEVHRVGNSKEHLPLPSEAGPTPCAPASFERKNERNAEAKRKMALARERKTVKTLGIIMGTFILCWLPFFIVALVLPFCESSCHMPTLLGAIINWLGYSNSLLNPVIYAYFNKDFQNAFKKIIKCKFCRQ
Description: Inhibition constant against 5-hydroxytryptamine 1A receptor

[4] = target: T1, Sodium-dependent serotonin transporter; assay: Negative logarithm causing 50% receptor occupancy against serotonin transporter
[5] = target: T3, Peroxisome proliferator-activated receptor alpha (Homo sapiens, UniProt Q07869)
T3 sequence (Q07869 whole entry): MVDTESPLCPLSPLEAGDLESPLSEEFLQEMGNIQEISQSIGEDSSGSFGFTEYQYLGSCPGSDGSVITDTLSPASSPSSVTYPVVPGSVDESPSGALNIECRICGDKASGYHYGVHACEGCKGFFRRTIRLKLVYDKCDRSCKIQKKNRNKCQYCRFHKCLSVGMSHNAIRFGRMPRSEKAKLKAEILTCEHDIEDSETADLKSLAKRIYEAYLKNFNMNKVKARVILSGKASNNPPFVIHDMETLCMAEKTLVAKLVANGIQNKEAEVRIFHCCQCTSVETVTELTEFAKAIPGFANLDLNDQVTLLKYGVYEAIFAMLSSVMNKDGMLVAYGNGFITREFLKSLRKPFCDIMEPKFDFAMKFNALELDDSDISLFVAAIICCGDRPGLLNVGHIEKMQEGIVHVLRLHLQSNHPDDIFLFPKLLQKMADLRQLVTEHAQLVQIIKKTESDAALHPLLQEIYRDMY
Description: Binding affinity towards peroxisome proliferator activated receptor alpha

[6] = target: T4, Peroxisome proliferator-activated receptor gamma (Homo sapiens, UniProt P37231)
T4 sequence (P37231 whole entry): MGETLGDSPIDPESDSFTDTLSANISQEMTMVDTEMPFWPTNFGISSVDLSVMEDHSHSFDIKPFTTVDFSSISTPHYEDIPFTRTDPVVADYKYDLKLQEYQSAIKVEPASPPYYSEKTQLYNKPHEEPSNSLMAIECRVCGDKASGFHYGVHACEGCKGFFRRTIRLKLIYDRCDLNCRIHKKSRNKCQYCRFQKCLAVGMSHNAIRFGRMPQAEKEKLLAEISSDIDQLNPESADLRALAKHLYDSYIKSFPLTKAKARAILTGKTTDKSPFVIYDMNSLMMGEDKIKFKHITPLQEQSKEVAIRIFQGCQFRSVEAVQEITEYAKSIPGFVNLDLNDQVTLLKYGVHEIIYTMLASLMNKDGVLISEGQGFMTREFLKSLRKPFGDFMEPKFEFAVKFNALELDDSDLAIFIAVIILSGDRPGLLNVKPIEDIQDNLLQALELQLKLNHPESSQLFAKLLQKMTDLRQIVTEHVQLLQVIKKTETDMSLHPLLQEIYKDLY
Description: Binding affinity towards peroxisome proliferator activated receptor gamma

[7] = target: T5, Peroxisome proliferator-activated receptor delta (Homo sapiens, UniProt Q03181)
T5 sequence (Q03181 whole entry): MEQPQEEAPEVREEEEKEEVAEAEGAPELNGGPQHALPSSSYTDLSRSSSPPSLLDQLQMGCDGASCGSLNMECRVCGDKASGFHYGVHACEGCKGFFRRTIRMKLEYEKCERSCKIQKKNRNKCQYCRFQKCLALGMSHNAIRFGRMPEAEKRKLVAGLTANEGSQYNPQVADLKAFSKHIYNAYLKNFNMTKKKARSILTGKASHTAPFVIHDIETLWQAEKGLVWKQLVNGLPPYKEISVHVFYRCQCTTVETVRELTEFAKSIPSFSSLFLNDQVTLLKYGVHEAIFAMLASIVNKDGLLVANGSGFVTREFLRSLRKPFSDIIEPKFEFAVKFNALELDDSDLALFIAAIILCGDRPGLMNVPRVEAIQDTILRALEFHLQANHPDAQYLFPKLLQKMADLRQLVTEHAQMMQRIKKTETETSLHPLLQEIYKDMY
Description: Binding affinity towards peroxisome proliferator activated receptor delta

[8] = target: T6, Adrenergic receptor alpha-1 (Homo sapiens, UniProt P35348+P25100+P35368)
T6 sequence (P35348 whole entry): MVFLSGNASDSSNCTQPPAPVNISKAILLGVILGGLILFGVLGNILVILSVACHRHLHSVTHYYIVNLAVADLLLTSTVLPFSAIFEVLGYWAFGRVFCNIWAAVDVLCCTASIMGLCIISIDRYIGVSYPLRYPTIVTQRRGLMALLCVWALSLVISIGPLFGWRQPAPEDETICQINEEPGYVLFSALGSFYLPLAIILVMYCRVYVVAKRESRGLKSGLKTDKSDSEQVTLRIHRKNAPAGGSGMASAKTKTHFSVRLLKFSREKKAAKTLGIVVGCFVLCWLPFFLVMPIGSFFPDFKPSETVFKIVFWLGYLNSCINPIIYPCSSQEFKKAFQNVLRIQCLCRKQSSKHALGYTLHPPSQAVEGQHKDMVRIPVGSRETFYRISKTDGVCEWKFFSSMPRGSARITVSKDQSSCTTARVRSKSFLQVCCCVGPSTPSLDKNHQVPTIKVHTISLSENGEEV
T6 sequence (P25100 whole entry): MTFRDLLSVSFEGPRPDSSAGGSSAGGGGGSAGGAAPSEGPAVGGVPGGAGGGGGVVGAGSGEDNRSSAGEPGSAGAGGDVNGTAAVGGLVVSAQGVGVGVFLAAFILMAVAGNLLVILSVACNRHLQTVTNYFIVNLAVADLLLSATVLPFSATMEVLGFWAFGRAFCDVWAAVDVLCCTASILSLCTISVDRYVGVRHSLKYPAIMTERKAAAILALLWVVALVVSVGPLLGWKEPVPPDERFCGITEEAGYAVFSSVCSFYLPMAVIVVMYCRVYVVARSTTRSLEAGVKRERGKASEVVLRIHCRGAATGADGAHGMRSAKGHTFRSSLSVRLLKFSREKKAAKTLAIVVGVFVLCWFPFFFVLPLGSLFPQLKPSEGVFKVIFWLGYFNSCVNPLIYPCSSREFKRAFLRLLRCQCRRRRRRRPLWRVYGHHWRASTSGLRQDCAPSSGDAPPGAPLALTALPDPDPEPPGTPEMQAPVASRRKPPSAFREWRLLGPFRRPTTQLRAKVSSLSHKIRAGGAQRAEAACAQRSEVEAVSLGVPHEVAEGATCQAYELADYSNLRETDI
T6 sequence (P35368 whole entry): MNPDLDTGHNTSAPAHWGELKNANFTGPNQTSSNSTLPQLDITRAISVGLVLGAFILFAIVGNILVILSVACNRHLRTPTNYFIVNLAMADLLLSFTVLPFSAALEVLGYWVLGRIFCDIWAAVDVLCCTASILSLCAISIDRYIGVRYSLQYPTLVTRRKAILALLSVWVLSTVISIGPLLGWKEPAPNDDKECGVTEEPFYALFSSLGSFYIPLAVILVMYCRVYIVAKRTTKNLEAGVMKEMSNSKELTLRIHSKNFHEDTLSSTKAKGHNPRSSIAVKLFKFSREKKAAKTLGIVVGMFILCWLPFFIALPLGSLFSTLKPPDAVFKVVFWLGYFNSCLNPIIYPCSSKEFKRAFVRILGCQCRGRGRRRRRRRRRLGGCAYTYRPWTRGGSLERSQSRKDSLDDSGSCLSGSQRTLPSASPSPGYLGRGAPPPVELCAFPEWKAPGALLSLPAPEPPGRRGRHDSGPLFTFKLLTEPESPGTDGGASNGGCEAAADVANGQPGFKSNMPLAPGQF
Description: Inhibitory concentration against alpha adrenergic receptor

[9] = target: T7, Polyunsaturated fatty acid 5-lipoxygenase (Homo sapiens, UniProt P09917); assay: Inhibitory concentration against arachidonate 5-lipoxygenase
T7 sequence (P09917 whole entry): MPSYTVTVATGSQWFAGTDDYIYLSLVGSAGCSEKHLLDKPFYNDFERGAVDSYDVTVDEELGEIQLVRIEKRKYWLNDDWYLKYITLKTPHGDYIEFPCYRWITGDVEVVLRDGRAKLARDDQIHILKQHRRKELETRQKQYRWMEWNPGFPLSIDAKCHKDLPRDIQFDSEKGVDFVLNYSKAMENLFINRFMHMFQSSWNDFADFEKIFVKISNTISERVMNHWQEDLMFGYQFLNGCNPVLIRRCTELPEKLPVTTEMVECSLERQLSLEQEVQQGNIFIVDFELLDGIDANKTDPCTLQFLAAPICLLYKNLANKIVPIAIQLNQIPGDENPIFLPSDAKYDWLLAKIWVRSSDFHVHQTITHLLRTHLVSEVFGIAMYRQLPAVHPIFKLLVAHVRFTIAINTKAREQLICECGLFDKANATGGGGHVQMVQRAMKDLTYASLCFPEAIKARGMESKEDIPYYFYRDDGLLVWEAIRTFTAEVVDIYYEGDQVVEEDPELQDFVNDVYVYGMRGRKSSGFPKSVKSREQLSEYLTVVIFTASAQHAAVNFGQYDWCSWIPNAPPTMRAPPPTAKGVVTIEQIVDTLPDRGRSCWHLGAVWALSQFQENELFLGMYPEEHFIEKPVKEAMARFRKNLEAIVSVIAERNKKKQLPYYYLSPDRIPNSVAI

Cyclooxygenase = Cyclooxygenase (Homo sapiens, UniProt P35354+P23219)
Description: Inhibitory concentration against prostaglandin G/H synthase

[10] = target: T7, Polyunsaturated fatty acid 5-lipoxygenase
Substance-K receptor = target: T8, Substance-K receptor (Homo sapiens, UniProt P21452)
T8 sequence (P21452 whole entry): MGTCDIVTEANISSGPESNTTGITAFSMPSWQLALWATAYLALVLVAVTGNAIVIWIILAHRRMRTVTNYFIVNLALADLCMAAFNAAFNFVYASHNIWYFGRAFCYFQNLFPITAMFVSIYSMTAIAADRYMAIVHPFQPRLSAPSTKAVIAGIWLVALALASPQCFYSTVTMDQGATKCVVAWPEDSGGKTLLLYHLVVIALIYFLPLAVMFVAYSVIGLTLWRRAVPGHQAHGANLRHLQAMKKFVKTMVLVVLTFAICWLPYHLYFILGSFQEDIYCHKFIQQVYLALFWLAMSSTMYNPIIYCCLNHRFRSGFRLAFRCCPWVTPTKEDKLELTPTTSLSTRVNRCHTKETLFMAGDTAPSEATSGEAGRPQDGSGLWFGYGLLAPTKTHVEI
Description: Inhibitory concentration against tachykinin receptor 2

[11] = target: T6, Adrenergic receptor alpha-1; assay: Inhibition constant against alpha adrenergic receptor; assay type: protein assay

T1 sequence (P31645 whole entry): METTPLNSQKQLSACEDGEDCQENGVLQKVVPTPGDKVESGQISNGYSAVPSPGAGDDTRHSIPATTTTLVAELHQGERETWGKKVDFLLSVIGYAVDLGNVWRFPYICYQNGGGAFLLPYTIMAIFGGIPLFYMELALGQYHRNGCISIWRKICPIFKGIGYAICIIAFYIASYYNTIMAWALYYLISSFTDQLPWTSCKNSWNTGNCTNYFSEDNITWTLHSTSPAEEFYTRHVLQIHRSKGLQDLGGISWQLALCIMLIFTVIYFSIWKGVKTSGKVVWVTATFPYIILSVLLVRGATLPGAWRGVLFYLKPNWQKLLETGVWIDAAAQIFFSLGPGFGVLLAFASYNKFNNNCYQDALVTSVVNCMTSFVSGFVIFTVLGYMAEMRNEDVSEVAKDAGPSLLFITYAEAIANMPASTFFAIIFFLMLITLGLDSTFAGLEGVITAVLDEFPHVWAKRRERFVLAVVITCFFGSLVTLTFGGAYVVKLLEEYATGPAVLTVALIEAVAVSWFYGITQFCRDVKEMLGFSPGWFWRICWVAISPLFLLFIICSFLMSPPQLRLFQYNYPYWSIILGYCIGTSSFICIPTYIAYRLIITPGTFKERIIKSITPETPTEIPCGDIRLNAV

CN(C)C(=O)Oc1ccc2c(c1)C=CCN(C)[C@@H]2CCOc1ccc([N+](=O)[O-])cc1
IC50 [1]: 6 nM

CN(C)CC(O)COc1cccc2[nH]ccc12 (stereo not given)
Ki [2]: > 7000 nM | Ki [3]: 24 nM

CCN(CC)C(=O)[C@@]1(c2ccccc2)CC1CNCC(O)COc1cccc2[nH]ccc12 (stereo not given in full)
IC50 [1]: 120 nM | Ki [3]: 45 nM

COc1cccc2c1CCCC2CN(C)CCc1cccc(F)c1 (stereo not given)
IC50 [1]: 160 nM | Ki [3]: 3.2 nM

CC(COc1ccc2c(c1)NC(=O)CO2)NCC(O)COc1cccc2[nH]ccc12 (stereo not given)
Ki [4]: 50.1 nM

CCOC(Cc1ccc(OCCN(C)C2=Nc3ccccc3Sc3ccccc32)cc1)C(=O)O (stereo not given)
Kd [5]: 7500 nM | Kd [6]: 9800 nM

CCO[C@@H](Cc1ccc(OCC=C(c2ccccc2)c2ccccc2)cc1)C(=O)O
Kd [5]: 6400 nM | Kd [7]: 5700 nM | Kd [6]: 2700 nM

O=C(CN1CCN(Cc2ccc(Cl)cc2)CC1)N1CCc2ccccc21
IC50 [8]: 88 nM

O=C1COc2ccc(OCCNCCCOc3cccc4[nH]ccc34)cc2N1
Ki [4]: 79.4 nM

CC(C)(C)c1cc(C=C2SC(N)=NC2=O)cc(C(C)(C)C)c1O
IC50 [9]: 770 nM | IC50 (Cyclooxygenase): 390 nM

O=C1Cc2cc(CCN3CCN(c4nsc5ccccc45)CC3)c(Cl)cc2N1 [ZIPRASIDONE]
IC50 [8]: 11 nM

COc1cccc2c1CCCC2CN(C)CCc1ccc2c(c1)OCO2 (stereo not given)
IC50 [1]: 21 nM | Ki [3]: 6.7 nM

Cc1c(O)c(C)c2sc(NCc3ccc(S(N)(=O)=O)cc3)nc2c1C
IC50 [10]: 230 nM

COc1ccccc1CN[C@H]1C2CCN(CC2)[C@@H]1C(c1ccccc1)c1ccccc1
IC50 (Substance-K receptor): > 10000 nM

CCO[C@@H](Cc1ccc(OCCn2c3ccccc3c3ccccc32)cc1)C(=O)O
Kd [5]: 360 nM | Kd [7]: 3000 nM | Kd [6]: 170 nM

CC(C)(C)c1cc(C(=O)c2cccs2)cc(C(C)(C)C)c1O [PRIFELONE]
IC50 [9]: 20000 nM | IC50 (Cyclooxygenase): 500 nM

CCO[C@@H](Cc1ccc(OCC=C(c2ccc(-c3ccccc3)cc2)c2ccc(-c3ccccc3)cc2)cc1)C(=O)O
Kd [5]: 1100 nM | Kd [7]: 500 nM | Kd [6]: 300 nM

C1=C(c2c[nH]c3ncccc23)CCN(CCOc2cccc3[nH]ccc23)C1
Ki [2]: 1.5 nM | Ki [11]: 1 nM

CN1[C@@H]2CC[C@H]1C[C@@H](OC(=O)c1c[nH]c3ccccc13)C2 [TROPISETRON]
Ki [3]: 5.3 nM

COc1ccc(-n2nc(C#CC(C)N(O)C(C)=O)cc2-c2ccc(Cl)cc2)cc1 (stereo not given)
IC50 [9]: 110 nM | IC50 (Cyclooxygenase): 30 nM
